# Source: ChEMBL document CHEMBL1201861, “Genomics of Drug Sensitity in Cancer screening data, Wellcome Trust Sanger Institute”
# Test system: Calu-3;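 further: growth inhibition of human Calu-3 cells, determined with a cell viability assay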
# Test: cells
# Assay type: functional, cell-based
# Conditions: Homo sapiens
row,SMILES,IC50
1,O=C(NCCCNc1nc(Nc2cccc(NC(=O)N3CCCC3)c2)ncc1I)c1cccs1 [BX-795],> 5 µM

# Test system: EFO-27;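 further: growth inhibition of EFO-27 cells, read out with a cell viability assay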
# Test: cells
# Assay type: functional, cell-based
# Conditions: Homo sapiens
# Description: SANGER: Inhibition of human EFO-27 cell growth in a cell viability assay.
row,SMILES,IC50
1,O=C(NCCCNc1nc(Nc2cccc(NC(=O)N3CCCC3)c2)ncc1I)c1cccs1 [BX-795],> 5 µM

# Test system: FaDu;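 further: cell viability readout of growth inhibition in FaDu cells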
# Test: cells
# Assay type: functional, cell-based
# Conditions: Homo sapiens
# Description: SANGER: Inhibition of human FADU cell growth in a cell viability assay.
row,SMILES,IC50
1,O=C(NCCCNc1nc(Nc2cccc(NC(=O)N3CCCC3)c2)ncc1I)c1cccs1 [BX-795],> 5 µM

# Test system: GAMG;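 further: cell growth inhibition measured by a viability assay in the GAMG human cell line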
# Test: cells
# Assay type: functional, cell-based
# Conditions: Homo sapiens
# Description: SANGER: Inhibition of human GAMG cell growth in a cell viability assay.
row,SMILES,IC50
1,O=C(NCCCNc1nc(Nc2cccc(NC(=O)N3CCCC3)c2)ncc1I)c1cccs1 [BX-795],2.83 µM

# Test system: HCC1395;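 further: growth inhibition of HCC1395 cells, read out by a cell viability assay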
# Test: cells
# Assay type: functional, cell-based
# Conditions: Homo sapiens
# Description: SANGER: Inhibition of human HCC1395 cell growth in a cell viability assay.
row,SMILES,IC50
1,O=C(NCCCNc1nc(Nc2cccc(NC(=O)N3CCCC3)c2)ncc1I)c1cccs1 [BX-795],> 5 µM

# Test system: HCC1954;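 further: growth inhibition of human HCC1954 cells, read out with a cell viability assay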
# Test: cells
# Assay type: functional, cell-based
# Conditions: Homo sapiens
# Description: SANGER: Inhibition of human HCC1954 cell growth in a cell viability assay.
row,SMILES,IC50
1,O=C(NCCCNc1nc(Nc2cccc(NC(=O)N3CCCC3)c2)ncc1I)c1cccs1 [BX-795],> 5 µM

# Test system: HGC-27;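 further: growth inhibition of human HGC-27 cells, read out in a cell viability assay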
# Test: cells
# Assay type: functional, cell-based
# Conditions: Homo sapiens
# Description: SANGER: Inhibition of human HGC-27 cell growth in a cell viability assay.
row,SMILES,IC50
1,O=C(NCCCNc1nc(Nc2cccc(NC(=O)N3CCCC3)c2)ncc1I)c1cccs1 [BX-795],> 5 µM

# Test system: HLE;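 further: growth inhibition of human HLE cells, read out by a cell viability assay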
# Test: cells
# Assay type: functional, cell-based
# Conditions: Homo sapiens
# Description: SANGER: Inhibition of human HLE cell growth in a cell viability assay.
row,SMILES,IC50
1,O=C(NCCCNc1nc(Nc2cccc(NC(=O)N3CCCC3)c2)ncc1I)c1cccs1 [BX-795],> 5 µM

# Test system: HN
# Test: cells
# Assay type: functional, cell-based
# Conditions: Homo sapiens
# Description: SANGER: Inhibition of human HN cell growth in a cell viability assay.
row,SMILES,IC50
1,O=C(NCCCNc1nc(Nc2cccc(NC(=O)N3CCCC3)c2)ncc1I)c1cccs1 [BX-795],2.12 µM

# Test system: HTC-C3;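 further: inhibition of cell growth, read out with a cell viability assay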
# Test: cells
# Assay type: functional, cell-based
# Conditions: Homo sapiens
# Description: SANGER: Inhibition of human HTC-C3 cell growth in a cell viability assay.
row,SMILES,IC50
1,O=C(NCCCNc1nc(Nc2cccc(NC(=O)N3CCCC3)c2)ncc1I)c1cccs1 [BX-795],> 5 µM

# Test system: HuCCT-1;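 further: growth inhibition of HuCCT-1 cells, read out by a cell viability assay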
# Test: cells
# Assay type: functional, cell-based, HuCCT1
# Conditions: Homo sapiens
# Description: SANGER: Inhibition of human HuCCT1 cell growth in a cell viability assay.
row,SMILES,IC50
1,O=C(NCCCNc1nc(Nc2cccc(NC(=O)N3CCCC3)c2)ncc1I)c1cccs1 [BX-795],> 5 µM

# Test system: HuP-T3;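 further: HuP-T3 cell growth inhibition, read out with a cell viability assay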
# Test: cells
# Assay type: functional, cell-based
# Conditions: Homo sapiens
# Description: SANGER: Inhibition of human HuP-T3 cell growth in a cell viability assay.
row,SMILES,IC50
1,O=C(NCCCNc1nc(Nc2cccc(NC(=O)N3CCCC3)c2)ncc1I)c1cccs1 [BX-795],> 5 µM

# Test system: KYSE-270;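 further: cell growth inhibition measured with a viability assay in the human KYSE-270 line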
# Test: cells
# Assay type: functional, cell-based
# Conditions: Homo sapiens
# Description: SANGER: Inhibition of human KYSE-270 cell growth in a cell viability assay.
row,SMILES,IC50
1,O=C(NCCCNc1nc(Nc2cccc(NC(=O)N3CCCC3)c2)ncc1I)c1cccs1 [BX-795],> 5 µM

# Test system: LCLC-103H cell line
# Test: cells
# Assay type: functional, cell-based
# Conditions: Homo sapiens
# Description: SANGER: Inhibition of human LCLC-103H cell growth in a cell viability assay.
row,SMILES,IC50
1,O=C(NCCCNc1nc(Nc2cccc(NC(=O)N3CCCC3)c2)ncc1I)c1cccs1 [BX-795],4.07 µM

# Test system: MC-IXC;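 further: growth inhibition of MC-IXC cells, read out with a cell viability assay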
# Test: cells
# Assay type: functional, cell-based
# Conditions: Homo sapiens
# Description: SANGER: Inhibition of human MC-IXC cell growth in a cell viability assay.
row,SMILES,IC50
1,O=C(NCCCNc1nc(Nc2cccc(NC(=O)N3CCCC3)c2)ncc1I)c1cccs1 [BX-795],2.9 µM

# Test system: MDA-MB-157
# Test: cells
# Assay type: functional, cell-based
# Conditions: Homo sapiens
# Description: SANGER: Inhibition of human MDA-MB-157 cell growth in a cell viability assay.
row,SMILES,IC50
1,O=C(NCCCNc1nc(Nc2cccc(NC(=O)N3CCCC3)c2)ncc1I)c1cccs1 [BX-795],1.72 µM

# Test system: MEL-HO
# Test: cells
# Assay type: functional, cell-based
# Conditions: Homo sapiens
# Description: SANGER: Inhibition of human MEL-HO cell growth in a cell viability assay.
row,SMILES,IC50
1,O=C(NCCCNc1nc(Nc2cccc(NC(=O)N3CCCC3)c2)ncc1I)c1cccs1 [BX-795],> 5 µM

# Test system: MKN-1;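 further: growth inhibition of human MKN1 cells, read out by a cell viability measurement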
# Test: cells
# Assay type: functional, cell-based
# Conditions: Homo sapiens
# Description: SANGER: Inhibition of human MKN1 cell growth in a cell viability assay.
row,SMILES,IC50
1,O=C(NCCCNc1nc(Nc2cccc(NC(=O)N3CCCC3)c2)ncc1I)c1cccs1 [BX-795],> 5 µM

# Test system: MKN-45;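 further: growth inhibition of human MKN-45 cells, measured with a cell viability assay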
# Test: cells
# Assay type: functional, cell-based
# Conditions: Homo sapiens
# Description: SANGER: Inhibition of human MKN45 cell growth in a cell viability assay.
row,SMILES,IC50
1,O=C(NCCCNc1nc(Nc2cccc(NC(=O)N3CCCC3)c2)ncc1I)c1cccs1 [BX-795],> 5 µM

# Test system: NCI-H1437;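 further: growth inhibition of human NCI-H1437 cells, read out by a cell viability assay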
# Test: cells
# Assay type: functional, cell-based
# Conditions: Homo sapiens
# Description: SANGER: Inhibition of human NCI-H1437 cell growth in a cell viability assay.
row,SMILES,IC50
1,O=C(NCCCNc1nc(Nc2cccc(NC(=O)N3CCCC3)c2)ncc1I)c1cccs1 [BX-795],2.77 µM

# Test system: NCI-H2405;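 further: growth inhibition of the human cell line, read out with a cell viability assay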
# Test: cells
# Assay type: functional, cell-based
# Conditions: Homo sapiens
# Description: SANGER: Inhibition of human NCI-H2405 cell growth in a cell viability assay.
row,SMILES,IC50
1,O=C(NCCCNc1nc(Nc2cccc(NC(=O)N3CCCC3)c2)ncc1I)c1cccs1 [BX-795],4.68 µM

# Test system: NCI-H522;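 further: cell viability assay measuring growth inhibition of human NCI-H522 cells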
# Test: cells
# Assay type: functional, cell-based
# Conditions: Homo sapiens
# Description: SANGER: Inhibition of human NCI-H522 cell growth in a cell viability assay.
row,SMILES,IC50
1,O=C(NCCCNc1nc(Nc2cccc(NC(=O)N3CCCC3)c2)ncc1I)c1cccs1 [BX-795],> 5 µM

# Test system: NCI-H630;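 further: growth inhibition of NCI-H630 cells, read out with a cell viability assay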
# Test: cells
# Assay type: functional, cell-based
# Conditions: Homo sapiens
# Description: SANGER: Inhibition of human NCI-H630 cell growth in a cell viability assay.
row,SMILES,IC50
1,O=C(NCCCNc1nc(Nc2cccc(NC(=O)N3CCCC3)c2)ncc1I)c1cccs1 [BX-795],> 5 µM

# Test system: NCI-H810;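 further: IC50 reflects inhibition of cancer cell line growth, read out with a cell viability assay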
# Test: cells
# Assay type: functional, cell-based
# Conditions: Homo sapiens
# Description: SANGER: Inhibition of human NCI-H810 cell growth in a cell viability assay.
row,SMILES,IC50
1,O=C(NCCCNc1nc(Nc2cccc(NC(=O)N3CCCC3)c2)ncc1I)c1cccs1 [BX-795],3.9 µM

# Test system: NY
# Test: cells
# Assay type: functional, cell-based
# Conditions: Homo sapiens
# Description: SANGER: Inhibition of human NY cell growth in a cell viability assay.
row,SMILES,IC50
1,O=C(NCCCNc1nc(Nc2cccc(NC(=O)N3CCCC3)c2)ncc1I)c1cccs1 [BX-795],> 5 µM

# Test system: RD
# Test: cells
# Assay type: functional, cell-based
# Conditions: Homo sapiens
# Description: SANGER: Inhibition of human RD cell growth in a cell viability assay.
row,SMILES,IC50
1,O=C(NCCCNc1nc(Nc2cccc(NC(=O)N3CCCC3)c2)ncc1I)c1cccs1 [BX-795],> 5 µM

# Test system: RMG-I;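 further: growth inhibition of human RMG-I cells, read out with a cell viability assay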
# Test: cells
# Assay type: functional, cell-based
# Conditions: Homo sapiens
# Description: SANGER: Inhibition of human RMG-I cell growth in a cell viability assay.
row,SMILES,IC50
1,O=C(NCCCNc1nc(Nc2cccc(NC(=O)N3CCCC3)c2)ncc1I)c1cccs1 [BX-795],> 5 µM

# Test system: SNU-449
# Test: cells
# Assay type: functional, cell-based
# Conditions: Homo sapiens
# Description: SANGER: Inhibition of human SNU-449 cell growth in a cell viability assay.
row,SMILES,IC50
1,O=C(NCCCNc1nc(Nc2cccc(NC(=O)N3CCCC3)c2)ncc1I)c1cccs1 [BX-795],5 µM

# Test system: SW1463;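 further: growth inhibition of SW1463 cells, determined with a cell viability assay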
# Test: cells
# Assay type: functional, cell-based
# Conditions: Homo sapiens
# Description: SANGER: Inhibition of human SW1463 cell growth in a cell viability assay.
row,SMILES,IC50
1,O=C(NCCCNc1nc(Nc2cccc(NC(=O)N3CCCC3)c2)ncc1I)c1cccs1 [BX-795],> 5 µM

# Test system: SW1710;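 further: growth inhibition of SW1710 cells, determined with a cell viability assay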
# Test: cells
# Assay type: functional, cell-based
# Conditions: Homo sapiens
# Description: SANGER: Inhibition of human SW1710 cell growth in a cell viability assay.
row,SMILES,IC50
1,O=C(NCCCNc1nc(Nc2cccc(NC(=O)N3CCCC3)c2)ncc1I)c1cccs1 [BX-795],2.29 µM

# Test system: SW1990;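 further: cell growth inhibition determined with a viability assay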
# Test: cells
# Assay type: functional, cell-based
# Conditions: Homo sapiens
# Description: SANGER: Inhibition of human SW1990 cell growth in a cell viability assay.
row,SMILES,IC50
1,O=C(NCCCNc1nc(Nc2cccc(NC(=O)N3CCCC3)c2)ncc1I)c1cccs1 [BX-795],> 5 µM

# Test system: SW626;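 further: growth inhibition of SW626 cells, measured with a cell viability assay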
# Test: cells
# Assay type: functional, cell-based
# Conditions: Homo sapiens
# Description: SANGER: Inhibition of human SW626 cell growth in a cell viability assay.
row,SMILES,IC50
1,O=C(NCCCNc1nc(Nc2cccc(NC(=O)N3CCCC3)c2)ncc1I)c1cccs1 [BX-795],> 5 µM

# Test system: SW780;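 further: growth inhibition of the cells, read out with a cell viability assay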
# Test: cells
# Assay type: functional, cell-based
# Conditions: Homo sapiens
# Description: SANGER: Inhibition of human SW780 cell growth in a cell viability assay.
row,SMILES,IC50
1,O=C(NCCCNc1nc(Nc2cccc(NC(=O)N3CCCC3)c2)ncc1I)c1cccs1 [BX-795],3.26 µM

# Test system: T-24;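 further: growth inhibition of T-24 cells, read out with a cell viability assay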
# Test: cells
# Assay type: functional, cell-based
# Conditions: Homo sapiens
# Description: SANGER: Inhibition of human T-24 cell growth in a cell viability assay.
row,SMILES,IC50
1,O=C(NCCCNc1nc(Nc2cccc(NC(=O)N3CCCC3)c2)ncc1I)c1cccs1 [BX-795],> 5 µM

# Test system: A204;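 further: growth inhibition of human A204 cells, read out with a cell viability assay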
# Test: cells
# Assay type: functional, cell-based
# Conditions: Homo sapiens
# Description: SANGER: Inhibition of human A204 cell growth in a cell viability assay.
row,SMILES,IC50
1,O=C(NCCCNc1nc(Nc2cccc(NC(=O)N3CCCC3)c2)ncc1I)c1cccs1 [BX-795],1.15 µM

# Test system: A-427;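 further: growth inhibition of human A-427 cells, read out by a cell viability assay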
# Test: cells
# Assay type: functional, cell-based
# Conditions: Homo sapiens
# Description: SANGER: Inhibition of human A427 cell growth in a cell viability assay.
row,SMILES,IC50
1,O=C(NCCCNc1nc(Nc2cccc(NC(=O)N3CCCC3)c2)ncc1I)c1cccs1 [BX-795],1.74 µM

# Test system: C3A;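 further: growth inhibition of C3A human cells, quantified with a cell viability readout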
# Test: cells
# Assay type: functional, cell-based
# Conditions: Homo sapiens
# Description: SANGER: Inhibition of human C3A cell growth in a cell viability assay.
row,SMILES,IC50
1,O=C(NCCCNc1nc(Nc2cccc(NC(=O)N3CCCC3)c2)ncc1I)c1cccs1 [BX-795],> 5 µM

# Test system: CAL-39;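 further: cell viability assay measuring growth inhibition of CAL-39 cells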
# Test: cells
# Assay type: functional, cell-based
# Conditions: Homo sapiens
# Description: SANGER: Inhibition of human CAL-39 cell growth in a cell viability assay.
row,SMILES,IC50
1,O=C(NCCCNc1nc(Nc2cccc(NC(=O)N3CCCC3)c2)ncc1I)c1cccs1 [BX-795],4.31 µM

# Test system: UO-31;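 further: cell viability assay measuring inhibition of cell growth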
# Test: cells
# Assay type: functional, cell-based
# Conditions: Homo sapiens
# Description: SANGER: Inhibition of human U031 cell growth in a cell viability assay.
row,SMILES,IC50
1,O=C(NCCCNc1nc(Nc2cccc(NC(=O)N3CCCC3)c2)ncc1I)c1cccs1 [BX-795],> 5 µM

# Test system: U-251;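 further: growth inhibition of human U-251 cells, read out through a cell viability assay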
# Test: cells
# Assay type: functional, cell-based
# Conditions: Homo sapiens
# Description: SANGER: Inhibition of human U251 cell growth in a cell viability assay.
row,SMILES,IC50
1,O=C(NCCCNc1nc(Nc2cccc(NC(=O)N3CCCC3)c2)ncc1I)c1cccs1 [BX-795],> 5 µM

# Test system: CAMA-1;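 further: growth inhibition of CAMA-1 cells, read out with a cell viability assay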
# Test: cells
# Assay type: functional, cell-based
# Conditions: Homo sapiens
# Description: SANGER: Inhibition of human CAMA-1 cell growth in a cell viability assay.
row,SMILES,IC50
1,O=C(NCCCNc1nc(Nc2cccc(NC(=O)N3CCCC3)c2)ncc1I)c1cccs1 [BX-795],> 5 µM

# Test system: CAPAN-1;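 further: growth suppression of CAPAN-1 cells, read out by a cell viability assay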
# Test: cells
# Assay type: functional, cell-based
# Conditions: Homo sapiens
# Description: SANGER: Inhibition of human CAPAN-1 cell growth in a cell viability assay.
row,SMILES,IC50
1,O=C(NCCCNc1nc(Nc2cccc(NC(=O)N3CCCC3)c2)ncc1I)c1cccs1 [BX-795],> 5 µM
